# In patent US20210221866A1, “PROTEASE-RESISTANT LIPIDATED GLP-1 ANALOGS” (MEDIMMUNE LIMITED, priority 2015, published 2021):
# Where two headings read alike, the source gives them in different places. Numbered stars: 1 amine (or outer) side, 2 acyl side, 3 side chain; on linkers, the order of the positions; unused ones are H or OH. Square brackets hold non-standard residues; d marks the D form. Side chains are listed from the residue outwards. Peptide text beside a SMILES is read from it. * marks the point of attachment. C18 diacid = O=C(O)CCCCCCCCCCCCCCCCC(=O)*; γGlu = O=C(O)[C@H](CCC(=O)[*:2])N[*:1]; αMeF = C[C@](N)(Cc1ccccc1)C(=O)O; αMeK = C[C@](N)(CCCCN)C(=O)O; αMeS = C[C@](N)(CO)C(=O)O; AEEA = NCCOCCOCC(=O)O; Aib = CC(C)(N)C(=O)O
# Columns and labels:
# Format in all cases: cell-based
# GLP-1R (INS1e cells) = target: T1, GLP-1R (INS1e cells) (Rattus norvegicus, UniProt P32301); assay: INS1e assay, cAMP activity at GLP-1R; conditions: Table 8, substituted and mono-lipidated peptides
# T1 construct: endogenous in cells; host or cells: INS1e cells
# T1 sequence (P32301 22-463): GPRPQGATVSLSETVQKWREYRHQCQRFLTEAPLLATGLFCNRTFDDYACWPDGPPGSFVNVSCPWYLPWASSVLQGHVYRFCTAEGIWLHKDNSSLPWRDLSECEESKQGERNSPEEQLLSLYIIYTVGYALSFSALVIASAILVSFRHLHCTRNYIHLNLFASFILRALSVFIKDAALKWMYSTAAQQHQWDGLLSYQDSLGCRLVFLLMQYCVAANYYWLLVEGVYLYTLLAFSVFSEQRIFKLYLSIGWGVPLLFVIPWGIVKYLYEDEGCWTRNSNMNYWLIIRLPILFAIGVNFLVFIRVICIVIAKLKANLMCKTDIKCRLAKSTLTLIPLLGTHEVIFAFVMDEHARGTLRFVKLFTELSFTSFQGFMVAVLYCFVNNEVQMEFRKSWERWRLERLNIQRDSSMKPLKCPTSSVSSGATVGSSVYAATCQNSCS
# [1] = target: T2, human GLP-1 receptor (GLP-1R) (Homo sapiens, UniProt P43220); assay: cAMP assay, human GLP-1R cells; conditions: cAMP activity
# T2 construct: expressed in transfected cells; host or cells: HEK293 cells or CHO cells
# T2 sequence (P43220 24-463): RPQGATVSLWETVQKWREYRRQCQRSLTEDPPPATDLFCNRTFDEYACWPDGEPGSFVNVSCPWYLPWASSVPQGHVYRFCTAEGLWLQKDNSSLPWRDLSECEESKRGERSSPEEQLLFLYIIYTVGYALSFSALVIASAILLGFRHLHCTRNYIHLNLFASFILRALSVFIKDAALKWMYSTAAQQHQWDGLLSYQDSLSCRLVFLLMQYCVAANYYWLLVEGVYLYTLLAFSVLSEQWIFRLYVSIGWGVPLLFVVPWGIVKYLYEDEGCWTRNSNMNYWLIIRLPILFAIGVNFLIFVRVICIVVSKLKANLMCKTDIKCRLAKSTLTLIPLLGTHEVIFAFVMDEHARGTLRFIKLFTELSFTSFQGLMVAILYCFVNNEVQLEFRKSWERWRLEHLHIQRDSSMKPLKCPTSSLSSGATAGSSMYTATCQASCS
# Summary of the method: (§1)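 Peptide-stimulated cAMP measured by two-step HTRF after a 30 min room-temperature incubation with receptor-expressing cells (hGLP-1R, hGIPR at 1×10^5 cells/ml; hGCGR at 2×10^5 cells/ml). Duplicate dilutions; EC50 from 4-parameter logistic fit of % Delta F.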
# [2] = target: T3, human glucagon receptor (GCGR) (Homo sapiens, UniProt P47871); assay: cAMP assay, human GCGR cells; conditions: cAMP activity; second determination (n2); read-out: Primary assay EC50 Gluc-R
# T3 construct: expressed in transfected cells; host or cells: HEK293 cells or CHO cells
# T3 sequence (P47871 26-477): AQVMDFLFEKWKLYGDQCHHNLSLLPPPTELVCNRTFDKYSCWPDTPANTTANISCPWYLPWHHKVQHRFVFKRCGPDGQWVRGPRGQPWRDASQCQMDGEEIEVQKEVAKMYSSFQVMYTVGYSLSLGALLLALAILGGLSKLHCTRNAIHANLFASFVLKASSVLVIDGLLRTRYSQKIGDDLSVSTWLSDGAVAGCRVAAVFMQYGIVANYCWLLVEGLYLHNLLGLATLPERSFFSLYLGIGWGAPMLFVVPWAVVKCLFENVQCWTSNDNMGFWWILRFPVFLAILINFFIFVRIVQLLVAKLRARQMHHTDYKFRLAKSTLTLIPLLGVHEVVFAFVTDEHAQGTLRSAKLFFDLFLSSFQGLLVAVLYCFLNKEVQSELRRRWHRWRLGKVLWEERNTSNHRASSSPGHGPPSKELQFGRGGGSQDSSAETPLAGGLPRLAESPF
# Summary of the method: as §1
# [3] = target: T4, human glucose-dependent insulinotropic peptide receptor (GIPR) (Homo sapiens, UniProt P48546); assay: cAMP assay, human GIPR cells; conditions: cAMP activity, read-out: Primary assay EC50 GIP-R
# T4 construct: expressed in transfected cells; host or cells: HEK293 cells or CHO cells
# T4 sequence (P48546 22-466): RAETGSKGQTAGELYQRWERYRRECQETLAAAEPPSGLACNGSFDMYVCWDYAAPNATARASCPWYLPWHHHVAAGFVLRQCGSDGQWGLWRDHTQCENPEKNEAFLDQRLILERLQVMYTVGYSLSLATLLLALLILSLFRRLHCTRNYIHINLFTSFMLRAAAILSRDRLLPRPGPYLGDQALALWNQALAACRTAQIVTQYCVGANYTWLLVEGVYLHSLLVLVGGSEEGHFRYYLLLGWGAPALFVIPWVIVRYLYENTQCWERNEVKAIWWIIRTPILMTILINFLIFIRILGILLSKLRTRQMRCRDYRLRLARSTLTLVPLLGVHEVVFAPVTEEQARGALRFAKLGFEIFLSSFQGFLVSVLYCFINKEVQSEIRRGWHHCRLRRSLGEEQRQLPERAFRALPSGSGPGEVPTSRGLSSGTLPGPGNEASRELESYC
# Summary of the method: as §1
# [4] = mean of n1 and n2, read-out: INS1e assay EC50 Mean pM GLP-1R
# [5] = replicate n1, read-out: INS1e assay EC50 GLP-1R n1
# [6] = replicate n2, read-out: INS1e assay EC50 GLP-1R n2
# [7] = first determination (n1), read-out: Primary assay EC50 GLP-1R n1
# [8] = mean of n1 and n2, read-out: Mean pM GLP-1R
# [9] = second determination (n2), read-out: Primary assay EC50 GLP-1R n2
Compound,EC50 (GLP-1R (INS1e cells); [4]),EC50 (GLP-1R (INS1e cells); [5]),EC50 (GLP-1R (INS1e cells); [6]),"EC50 [1, 7]","EC50 [1, 8]","EC50 [1, 9]",EC50 [2],EC50 ([3]; first determination (n1)),EC50 ([3]; second determination (n2))
CC[C@H](C)[C@H](NC(=O)[C@](C)(Cc1ccccc1)NC(=O)[C@H](CCC(=O)O)NC(=O)[C@](C)(CCCCN)NC(=O)[C@H](C)NC(=O)[C@H](C)NC(=O)[C@H](CCC(=O)O)NC(=O)CNC(=O)[C@H](CCC(=O)O)NC(=O)[C@H](CC(C)C)NC(=O)[C@](C)(Cc1ccccc1)NC(=O)[C@H](CO)NC(=O)[C@](C)(CO)NC(=O)[C@@H](NC(=O)[C@H](CC(=O)O)NC(=O)[C@H](CO)NC(=O)[C@@H](NC(=O)[C@](C)(Cc1ccccc1)NC(=O)[C@H](CO)NC(=O)CNC(=O)[C@H](CCC(=O)O)NC(=O)C(C)(C)NC(=O)[C@@H](N)Cc1c[nH]cn1)[C@@H](C)O)C(C)C)C(=O)N[C@@H](C)C(=O)N[C@@](C)(Cc1ccccc1)C(=O)N[C@H](C(=O)N[C@H](C(=O)N[C@@](C)(CCCCN)C(=O)NCC(=O)N[C@@H](CCCCNC(=O)COCCOCCNC(=O)COCCOCCNC(=O)CC[C@H](NC(=O)CCCCCCCCCCCCCCCCC(=O)O)C(=O)O)C(N)=O)C(C)C)C(C)C [compound 99] (H-H[Aib]EGS[αMeF]TSDV[αMeS]S[αMeF]LEGEAA[αMeK]E[αMeF]IA[αMeF]VV[αMeK]GK([AEEA-AEEA-γGlu-C18 diacid])-NH2; N-terminus assumed),8440 pM,11000 pM,5880 pM,58 pM,54 pM,49.3 pM,≥ 24900 pM,≥ 25000 pM,≥ 24900 pM
CC[C@H](C)[C@H](NC(=O)[C@](C)(Cc1ccccc1)NC(=O)[C@H](CCC(=O)O)NC(=O)[C@](C)(CCCCN)NC(=O)[C@H](C)NC(=O)[C@H](C)NC(=O)[C@H](CCC(=O)O)NC(=O)CNC(=O)[C@H](CCC(=O)O)NC(=O)[C@H](CC(C)C)NC(=O)[C@](C)(Cc1ccccc1)NC(=O)[C@H](CO)NC(=O)[C@](C)(CO)NC(=O)[C@@H](NC(=O)[C@H](CC(=O)O)NC(=O)[C@H](CO)NC(=O)[C@@H](NC(=O)[C@](C)(Cc1ccccc1)NC(=O)[C@H](CO)NC(=O)CNC(=O)[C@H](CCC(=O)O)NC(=O)C(C)(C)NC(=O)[C@@H](N)Cc1c[nH]cn1)[C@@H](C)O)C(C)C)C(=O)N[C@@H](C)C(=O)N[C@@](C)(Cc1ccccc1)C(=O)N[C@H](C(=O)N[C@@H](CCCCNC(=O)COCCOCCNC(=O)COCCOCCNC(=O)CC[C@H](NC(=O)CCCCCCCCCCCCCCCCC(=O)O)C(=O)O)C(=O)N[C@@](C)(CCCCN)C(=O)NCC(=O)NCC(N)=O)C(C)C [compound 102] (H-H[Aib]EGS[αMeF]TSDV[αMeS]S[αMeF]LEGEAA[αMeK]E[αMeF]IA[αMeF]VK([AEEA-AEEA-γGlu-C18 diacid])[αMeK]GG-NH2),3560 pM,4220 pM,2890 pM,24 pM,22 pM,20.6 pM,≥ 25200 pM,≥ 25000 pM,≥ 25200 pM
CC[C@H](C)[C@H](NC(=O)[C@](C)(Cc1ccccc1)NC(=O)[C@H](CCC(=O)O)NC(=O)[C@](C)(CCCCN)NC(=O)[C@H](C)NC(=O)[C@H](C)NC(=O)[C@H](CCC(=O)O)NC(=O)CNC(=O)[C@H](CCC(=O)O)NC(=O)[C@H](CC(C)C)NC(=O)[C@](C)(Cc1ccccc1)NC(=O)[C@H](CO)NC(=O)[C@](C)(CO)NC(=O)[C@@H](NC(=O)[C@H](CC(=O)O)NC(=O)[C@H](CO)NC(=O)[C@@H](NC(=O)[C@](C)(Cc1ccccc1)NC(=O)[C@H](CO)NC(=O)CNC(=O)[C@H](CCC(=O)O)NC(=O)C(C)(C)NC(=O)[C@@H](N)Cc1c[nH]cn1)[C@@H](C)O)C(C)C)C(=O)N[C@@H](CCCCNC(=O)COCCOCCNC(=O)COCCOCCNC(=O)CC[C@H](NC(=O)CCCCCCCCCCCCCCCCC(=O)O)C(=O)O)C(=O)N[C@@](C)(Cc1ccccc1)C(=O)N[C@H](C(=O)N[C@H](C(=O)N[C@@](C)(CCCCN)C(=O)NCC(=O)NCC(N)=O)C(C)C)C(C)C [compound 105] (H-H[Aib]EGS[αMeF]TSDV[αMeS]S[αMeF]LEGEAA[αMeK]E[αMeF]IK([AEEA-AEEA-γGlu-C18 diacid])[αMeF]VV[αMeK]GG-NH2; N-terminus assumed),970 pM,220 pM,1720 pM,21 pM,18 pM,14.8 pM,≥ 25000 pM,≥ 25000 pM,≥ 25000 pM

# Stronger by EC50 (GLP-1R (INS1e cells); [4]), values ahead:
EC50 (GLP-1R (INS1e cells); [4]),EC50 (GLP-1R (INS1e cells); [5]),EC50 (GLP-1R (INS1e cells); [6]),"EC50 [1, 7]","EC50 [1, 8]","EC50 [1, 9]",EC50 [2],EC50 ([3]; first determination (n1)),EC50 ([3]; second determination (n2)),Compound
509 pM,428 pM,590 pM,4.7 pM,5 pM,4.56 pM,≥ 25200 pM,≥ 25000 pM,≥ 25200 pM,CC[C@H](C)[C@H](NC(=O)[C@](C)(Cc1ccccc1)NC(=O)[C@H](CCC(=O)O)NC(=O)[C@](C)(CCCCN)NC(=O)[C@H](C)NC(=O)[C@H](C)NC(=O)[C@H](CCC(=O)O)NC(=O)CNC(=O)[C@H](CCC(=O)O)NC(=O)[C@H](CC(C)C)NC(=O)[C@](C)(Cc1ccccc1)NC(=O)[C@H](CO)NC(=O)[C@](C)(CO)NC(=O)[C@@H](NC(=O)[C@H](CC(=O)O)NC(=O)[C@H](CO)NC(=O)[C@@H](NC(=O)[C@](C)(Cc1ccccc1)NC(=O)[C@H](CO)NC(=O)CNC(=O)[C@H](CCC(=O)O)NC(=O)C(C)(C)NC(=O)[C@@H](N)Cc1c[nH]cn1)[C@@H](C)O)C(C)C)C(=O)N[C@@H](C)C(=O)N[C@@](C)(Cc1ccccc1)C(=O)N[C@@H](CCCCNC(=O)COCCOCCNC(=O)COCCOCCNC(=O)CC[C@H](NC(=O)CCCCCCCCCCCCCCCCC(=O)O)C(=O)O)C(=O)N[C@H](C(=O)N[C@@](C)(CCCCN)C(=O)NCC(=O)NCC(N)=O)C(C)C [compound 103] (H-H[Aib]EGS[αMeF]TSDV[αMeS]S[αMeF]LEGEAA[αMeK]E[αMeF]IA[αMeF]K([AEEA-AEEA-γGlu-C18 diacid])V[αMeK]GG-NH2)
544 pM,593 pM,494 pM,6 pM,6 pM,5.39 pM,≥ 25300 pM,≥ 25000 pM,≥ 25300 pM,CC[C@H](C)[C@H](NC(=O)[C@](C)(Cc1ccccc1)NC(=O)[C@H](CCC(=O)O)NC(=O)[C@](C)(CCCCN)NC(=O)[C@H](C)NC(=O)[C@H](C)NC(=O)[C@H](CCC(=O)O)NC(=O)CNC(=O)[C@H](CCC(=O)O)NC(=O)[C@H](CCCCNC(=O)COCCOCCNC(=O)COCCOCCNC(=O)CC[C@H](NC(=O)CCCCCCCCCCCCCCCCC(=O)O)C(=O)O)NC(=O)[C@](C)(Cc1ccccc1)NC(=O)[C@H](CO)NC(=O)[C@](C)(CO)NC(=O)[C@@H](NC(=O)[C@H](CC(=O)O)NC(=O)[C@H](CO)NC(=O)[C@@H](NC(=O)[C@](C)(Cc1ccccc1)NC(=O)[C@H](CO)NC(=O)CNC(=O)[C@H](CCC(=O)O)NC(=O)C(C)(C)NC(=O)[C@@H](N)Cc1c[nH]cn1)[C@@H](C)O)C(C)C)C(=O)N[C@@H](C)C(=O)N[C@@](C)(Cc1ccccc1)C(=O)N[C@H](C(=O)N[C@H](C(=O)N[C@@](C)(CCCCN)C(=O)NCC(=O)NCC(N)=O)C(C)C)C(C)C [compound 115] (H-H[Aib]EGS[αMeF]TSDV[αMeS]S[αMeF]K([AEEA-AEEA-γGlu-C18 diacid])EGEAA[αMeK]E[αMeF]IA[αMeF]VV[αMeK]GG-NH2)
